Assay results reported in ChEMBL document CHEMBL1157384, “Apratoxin D, a potent cytotoxic cyclodepsipeptide from papua new guinea collections of the marine cyanobacteria Lyngbya majuscula and Lyngbya sordida” (J Nat Prod, 2008).

Test system: NCI-H460
Experiment: Cytotoxicity against human H460 cells after 48 hrs by MTT assay
Format: functional, cell-based
Conditions: NCI-H460, 48 h

## CC[C@H](C)[C@H]1C(=O)N2CCC[C@H]2C(=O)O[C@H]([C@@H](C)CC(C)(C)C)C[C@@H](C)C[C@H](O)[C@H](C)C2=N[C@@H](/C=C(\C)C(=O)N[C@@H](Cc3ccc(OC)cc3)C(=O)N(C)[C@@H](C)C(=O)N1C)CS2 [APRATOXIN D]
  IC50: 2.6 nM
